Reference: patent US20050096381A1, “Derivatives of isoflavones” (YEDA & MEDICAL RESEARCH, priority 2002, published 2005)
“Also recorded” adds a separate entry of the source. Like-named read-outs stand apart in the source and are kept apart here.

What was measured:
[1] = tested on: E304 endothelial cells (expressing mainly ERα); test: DNA synthesis by [3H]-thymidine incorporation in E304 cells; format: cell-based, human
Protocol: E304 cells, expressing mainly ERα, an endothelial cell line derived from a human umbilical vein, were purchased from American Type Culture Collection (ATCC), Rockville, Md., and grown in medium 199 containing 10% FCS, glutamine and antibiotics.
(§1) Assessment of DNA synthesis was performed by [^3H]-thymidine incorporation in these cells. Cells were grown until subconfluence and then treated with various hormones or agents as indicated. Forty-eight hours later, [^3H] thymidine was added for two hours. Cells were then treated with 10% ice-cold trichloroacetic (TCA) for 5 min and washed twice with 5% TCA and then with cold ethanol. The cellular layer was dissolved in 0.3 ml of 0.3M NaOH, samples were taken and [^3H] thymidine incorporation into DNA was determined. The concentration of hormone to produce half-maximal induction (EC50) or inhibition (IC50) was calculated from the dose response curves.
(§2) In the second phase the cytotoxicity of isoflavone-daunomycin conjugates was tested after 48 h of incubation in normal cells [VSMC, E304, non transformed enterocytes (TEC)] and malignant cells [human adrenocortical carcinoma (NCI-H295R), human colon cancer cells (colo320) and c-K-ras transformed rat enterocytes (R1)] using uptake of [^3H]-thymidine as a proliferation marker.

[2] = tested on: human adrenocortical carcinoma cells (NCI-H295R); test: cells; format: cell-based; settings: for IC50: read-out: concentration required for 50% inhibition of DNA synthesis (IC50), NCI-H295R
Protocol: These cells were purchased from ATTC (Rockville, Md.) and grown in Dulbecco's modified Eagle's medium containing antibiotics.
as §1, §2

[3] = tested on: human colon cancer cells (colo320); test: DNA synthesis by [3H]-thymidine incorporation in colo320 cells; format: cell-based
Protocol: These cells were purchased from ATTC (Rockville, Md.) and grown in RPMI medium containing 20 mM HEPES and 10% fetal calf serum.
as §1, §2

Recombinant ERβ protein = Recombinant ERβ protein (Homo sapiens, UniProt Q92731); test: Estrogen receptor-binding assay, [3H]-17β-estradiol displacement, ERβ; settings: for binding activity to ERβ: result in words
Protocol: (§3) Biotinylated anti-ER antibody (α or β, prepared as described in Strasburger C J & Kohen F 1990 Methods Enzymol. 184:481-496), 100 ng/well in 100 μl of binding buffer, was added to each well, and the reaction mixtures were incubated with shaking for 2 h and 30 min at room temperature. The reaction mixtures were then decanted, and each well was washed once with binding buffer. Dilute sodium hydroxide (0.1 N, 300 μl) was added to each well. After shaking for 20 min, an aliquot (200 μl) was removed from each well and added to a vial containing scintillation fluid. The vials were then counted for radioactivity in a beta scintillation counter.

[4] = tested on: creatine kinase (CK) specific activity, an estrogen responsive enzyme; test: Stimulation of the specific activity of creatine kinase (CK) in rat tissues in vivo; settings: for effect on CK specific activity in rat tissues (in words): uterus, pituitary, epiphysis, diaphysis, aorta, left ventricle; for CK specific activity (experimental/control), aorta: Ao; for CK specific activity (experimental/control), aorta / CK specific activity (experimental/control), diaphysis / CK specific activity (experimental/control), epiphysis / CK specific activity (experimental/control), left ventricle of the heart / CK specific activity (experimental/control), pituitary / CK specific activity (experimental/control), uterus: immature female rats, i.p., 24 h, mean ± SD, n = 5, control = 1.0; for CK specific activity (experimental/control), diaphysis: Dia; for CK specific activity (experimental/control), epiphysis: Epi; for CK specific activity (experimental/control), left ventricle of the heart: LV; for CK specific activity (experimental/control), pituitary: Pi; for CK specific activity (experimental/control), uterus: Ut
Protocol: The ability of the isoflavone derivatives to bind estrogen receptor and/or to modulate estrogen receptor response may be examined by any assay known in the art. A convenient assay described herein as a non-limiting example utilizes the specific activity of creatine kinase (CK), an estrogen responsive enzyme, as a parameter for the estrogen-like activity of the isoflavone derivatives of the present invention.
The rats were killed by decapitation 24 h after i.p. injection. The various organs were removed and stored at −20° C. until processed for CK activity as previously described (Somjen D. et al. 1998 Hypertension 32:39-45).

[5] = tested on: human vascular smooth muscle cells (VSMC), expressing mainly ERβ; test: cells; format: cell-based
Protocol: Human umbilical artery smooth muscle cells, expressing mainly ERβ, were prepared as previously described with minor modifications (Somjen D. et al. 1998 Hypertension 32:39-45). In brief, umbilical cords were collected shortly after delivery. The umbilical arteries were isolated by dissection, cleaned of blood and adventitia and then cut into tiny slices (1-3 mm). The segments were kept in culture in medium 199 containing 20% FCS, glutamine and antibiotics. […] Cells were fed twice a week and, upon confluence, trypsinized and transferred to 24-well dishes. Cells were used only at passages 1-3 when expression of smooth muscle actin was clearly demonstrable.
as §1, §2

Recombinant ERα protein = biological target: T1, Recombinant ERα protein (Homo sapiens, UniProt P03372); test: Estrogen receptor-binding assay, [3H]-17β-estradiol displacement, ERα; settings: result in words
T1 sequence (P03372 1-595): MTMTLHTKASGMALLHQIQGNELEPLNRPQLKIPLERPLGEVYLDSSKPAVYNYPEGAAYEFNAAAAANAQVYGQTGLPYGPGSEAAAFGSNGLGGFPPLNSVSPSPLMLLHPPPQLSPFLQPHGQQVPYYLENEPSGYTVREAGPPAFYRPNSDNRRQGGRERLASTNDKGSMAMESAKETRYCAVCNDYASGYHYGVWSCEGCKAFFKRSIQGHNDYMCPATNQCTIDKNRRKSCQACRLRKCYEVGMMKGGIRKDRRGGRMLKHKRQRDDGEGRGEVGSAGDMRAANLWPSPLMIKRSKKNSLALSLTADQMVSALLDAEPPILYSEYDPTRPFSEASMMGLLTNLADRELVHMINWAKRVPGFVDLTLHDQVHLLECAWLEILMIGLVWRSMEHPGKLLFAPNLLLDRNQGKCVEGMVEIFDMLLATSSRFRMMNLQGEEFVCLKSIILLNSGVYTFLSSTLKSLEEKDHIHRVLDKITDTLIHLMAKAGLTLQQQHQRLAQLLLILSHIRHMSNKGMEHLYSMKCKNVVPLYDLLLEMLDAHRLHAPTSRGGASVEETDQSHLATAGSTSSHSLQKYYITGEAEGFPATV
Protocol: as §3

[6] = tested on: c-K-ras transformed rat enterocytes (R1); test: cells; format: cell-based; settings: read-out: concentration required for 50% inhibition of DNA synthesis (IC50), R1
Protocol: (§4) Cell lines were obtained from Prof. N. Arber, Ichilov Hospital, Tel-Aviv, Israel and grown as described previously (Arber N et al. 1996 Oncogene 12:1903-1908).
as §1, §2

[7] = tested on: nontransformed rat enterocytes (IEC); test: cells; format: cell-based; settings: read-out: concentration required for 50% inhibition of DNA synthesis (IC50), IEC
Protocol: as §4, §1, §2

[8] = 48 h incubation, read-out: concentration required for 50% inhibition of DNA synthesis (IC50), E304
[9] = 48 h incubation, [3H]-thymidine
[10] = 48 h incubation, [3H]-thymidine, read-out: concentration required for 50% inhibition of DNA synthesis (IC50), VSMC

Recombinant ERβ protein, sequence (Q92731 whole entry, species assumed): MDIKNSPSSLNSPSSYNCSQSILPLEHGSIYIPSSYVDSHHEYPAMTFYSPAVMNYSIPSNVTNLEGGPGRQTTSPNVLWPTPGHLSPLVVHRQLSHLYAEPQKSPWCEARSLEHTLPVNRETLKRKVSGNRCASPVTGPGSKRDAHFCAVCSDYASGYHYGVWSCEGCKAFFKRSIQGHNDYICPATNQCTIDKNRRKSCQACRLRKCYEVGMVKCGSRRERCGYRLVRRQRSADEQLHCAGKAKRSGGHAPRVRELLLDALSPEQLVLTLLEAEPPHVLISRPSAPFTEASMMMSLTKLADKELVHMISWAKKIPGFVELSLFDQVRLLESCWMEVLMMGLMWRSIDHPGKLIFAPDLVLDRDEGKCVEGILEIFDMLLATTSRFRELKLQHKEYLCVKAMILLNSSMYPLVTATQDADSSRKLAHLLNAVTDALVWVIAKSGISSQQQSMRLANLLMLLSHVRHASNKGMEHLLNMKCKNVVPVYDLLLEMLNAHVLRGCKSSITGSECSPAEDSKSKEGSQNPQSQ

| Molecule | IC50 [1, 8] | effect on CK specific activity in rat tissues (in words) [4] | binding activity to ERα (Recombinant ERα protein) | binding activity to ERβ (Recombinant ERβ protein) | CK specific activity (experimental/control), aorta [4] | CK specific activity (experimental/control), diaphysis [4] | CK specific activity (experimental/control), epiphysis [4] | CK specific activity (experimental/control), left ventricle of the heart [4] | CK specific activity (experimental/control), pituitary [4] | CK specific activity (experimental/control), uterus [4] | other results |
| --- | --- | --- | --- | --- | --- | --- | --- | --- | --- | --- | --- |
| 6-carboxymethyl biochanin A daunomycin conjugate [Cbio-daunomycin] | 5 nM | – | – | – | – | – | – | – | – | – | IC50 [2, 9]: 60 nM; IC50 ([3]; 48 h incubation, [3H]-thymidine, read-out: concentration required for 50% inhibition of DNA synthesis (IC50), Colo320): 40 nM |
| O=C(O)Cc1c(O)cc2occ(-c3ccc(O)cc3)c(=O)c2c1O [6-carboxymethyl genistein] | – | caused an increase in CK activity in rat tissues | – | – | – | – | – | – | – | – | IC50 (Recombinant ERβ protein; recombinant ERβ, [3H]-17β-estradiol 3 nM, read-out: inhibition of binding of [3H]-estradiol to ERβ, relative binding affinity values (IC50)): 200 nM; EC50 ([5]; Homo sapiens, VSMC, [3H]-thymidine incorporation, read-out: induced proliferation, EC50 in VSMC): 3 nM; EC50 ([2]; Homo sapiens, NCI-H295R, [3H]-thymidine incorporation, read-out: induced proliferation, EC50 in NCI-H295R): 2 nM |
| 7-(O)-carboxymethyl daidzein-daunomycin conjugate [Cdaid-daunomycin] | – | – | – | – | – | – | – | – | – | – | IC50 [5, 10]: 22 nM; IC50 ([2]; 48 h incubation, [3H]-thymidine, listed as 7-(O)-carboxymethyl daidzein-daunomycin conjugate): 7 nM; IC50 [2, 9]: 6 nM |
| O=c1c(-c2ccc(O)cc2)coc2cc(O)ccc12 [Daidzein, reference compound] | – | – | did not show any significant binding activity | did not show any significant binding activity | – | – | – | – | – | – | – |
| COc1cccc2c1C(=O)c1c(O)c3c(c(O)c1C2=O)C[C@@](O)(C(C)=O)C[C@@H]3O[C@H]1C[C@H](N)[C@H](O)[C@H](C)O1 [Daunomycin, daunomycin, reference compound] | 300 nM | – | – | – | – | – | – | – | – | – | IC50 ([1]; read-out: concentration required for 50% inhibition of DNA synthesis (IC50), E304, 48 h incubation): 800 nM; IC50 ([5]; Homo sapiens, VSMC, read-out: concentration required for 50% inhibition of DNA synthesis (IC50), VSMC, 48 h incubation, [3H]-thymidine): 700 nM; IC50 ([5]; read-out: concentration required for 50% inhibition of DNA synthesis (IC50), VSMC, 48 h incubation, [3H]-thymidine): 650 nM; IC50 ([6]; Rattus norvegicus): 850 nM; IC50 ([7]; Rattus norvegicus): 550 nM; IC50 ([3]; Homo sapiens, COLO 320, read-out: concentration required for 50% inhibition of DNA synthesis (IC50), Colo320): 300 nM |
| COc1ccc(-c2coc3cc(O)c(CC(=O)O)c(O)c3c2=O)cc1 [6-carboxymethyl biochanin A] | – | increased the CK specific activity in all the rat tissues with the exception of the uterus; also recorded: caused an increase in CK activity in rat tissues | did not show any significant binding activity | did not show any significant binding activity | 1.63 ± 0.11 | 1.51 ± 0.05 | 1.61 ± 0.17 | 1.91 ± 0.16 | 1.54 ± 0.05 | 0.89 ± 0.12 | stimulatory response of E2 to CK specific activity on combination with E2 (in words) ([4]; rats treated with E2 plus compound): inhibited in all the tissues |
| C[C@]12CC[C@@H]3c4ccc(O)cc4CC[C@H]3[C@@H]1CC[C@@H]2O [Estradiol, 17β-estradiol] | – | stimulated the CK specific activity in all the rat tissues | – | – | 2.43 ± 0.06 | 2.75 ± 0.23 | 1.85 ± 0.16 | 1.53 ± 0.13 | 1.45 ± 0.05 | 1.49 ± 0.13 | – |
| COc1ccc(-c2coc3cc(O)cc(O)c3c2=O)cc1 [Biochanin A, biochanin A] | – | stimulated the CK specific activity in all the rat tissues | did not show any significant binding activity | did not show any significant binding activity | 2 ± 0.18 | 1.9 ± 0.23 | 2.38 ± 0.18 | 1.42 ± 0.04 | 1.58 ± 0.05 | 1.42 ± 0.13 | – |
| O=C(O)COc1ccc2c(=O)c(-c3ccc(O)cc3)coc2c1 [7-(O)-carboxymethyl daidzein] | – | – | did not show any significant binding activity | did not show any significant binding activity | – | – | – | – | – | – | – |
| 6-carboxymethyl genistein daunomycin conjugate [Cgen-daunomycin] | 60 nM | – | – | – | – | – | – | – | – | – | IC50 ([5]; 48 h incubation, [3H]-thymidine, listed as 6-carboxymethyl genistein daunomycin conjugate, read-out: concentration required for 50% inhibition of DNA synthesis (IC50), VSMC): 20 nM; IC50 [5, 10]: 12 nM; IC50 [2]: 16 nM; IC50 [6]: 70 nM; IC50 [7]: 2000 nM |
